The numbers were not newly measured in US12558353B2 (CELLTAXIS, LLC, priority 2018, dated 2026), which cites them from elsewhere.

Where two headings read alike, the source gives them in different places.

In one data set the target is T1, BLT1 receptor (Homo sapiens, UniProt Q15722).
T1 construct: host or cells: human CF patients (endogenous receptor)
The following applies: patients with stable CF lung disease, cited from earlier work.

For data set [1], the system named is P. aeruginosa-infected mice. The following applies: doses of 0.3 to 100 mg/kg; cited from earlier work.
Another data set deals with patients with CF. As to conditions: high doses, cited from earlier work.

T1 sequence (Q15722 whole entry): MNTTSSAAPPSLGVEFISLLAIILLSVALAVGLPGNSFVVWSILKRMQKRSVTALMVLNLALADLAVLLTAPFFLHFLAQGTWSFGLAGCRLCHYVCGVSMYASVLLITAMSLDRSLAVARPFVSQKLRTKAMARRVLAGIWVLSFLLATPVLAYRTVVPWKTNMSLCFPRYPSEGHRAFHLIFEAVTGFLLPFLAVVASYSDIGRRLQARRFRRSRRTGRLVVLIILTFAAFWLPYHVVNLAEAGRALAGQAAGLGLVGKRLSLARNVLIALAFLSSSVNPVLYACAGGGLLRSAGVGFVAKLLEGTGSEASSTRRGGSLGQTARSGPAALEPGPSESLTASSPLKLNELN

Turning to `CCOC(=O)NC(=N)c1ccc(OCc2cccc(COc3ccc(C(C)(C)c4ccc(O)cc4)cc3)c2)cc1`, on BLT1 receptor, the “serious adverse events leading to early termination of the trial” value is “increase in respiratory serious adverse events”. Also, the “serious adverse events leading to early termination of the trial” value on BLT1 receptor (listed as amelubant) is listed as “increase in serious pulmonary AEs”. In addition, in data set [1], the “Mac-1 (CR3) expression” value is “significantly down-regulated”; the “number of neutrophils in the lungs and the airways” value is on record as “reduced the number of neutrophils”.
For the compound `CC(C)Cc1ccc(C(C)C(=O)O)cc1` (stereo not drawn) [ibuprofen], the survival entry in the data set with patients with CF (children with CF) is “improves survival”. In addition, the lung function decline entry in the data set with patients with CF is recorded as “slows lung function decline”.
